Tests used:
[1] = target: Cannabinoid receptor 1 (Homo sapiens) (UniProt P21554); assay: CB1 (h) Eurofins-Cerep Cellular and Nuclear Receptor Functional Assays; conditions: Compound concentration 10.0 uM
[2] = target: Tyrosine-protein kinase SYK (Homo sapiens) (UniProt P43405); conditions: Compound concentration 1000.0 nM
[3] = target: Motilin receptor (Homo sapiens) (UniProt O43193); assay: motilin (h) Eurofins-Cerep Cellular and Nuclear Receptor Functional Assays; conditions: Compound concentration 10.0 uM
Motilin receptor (Homo sapiens), sequence (O43193 whole entry): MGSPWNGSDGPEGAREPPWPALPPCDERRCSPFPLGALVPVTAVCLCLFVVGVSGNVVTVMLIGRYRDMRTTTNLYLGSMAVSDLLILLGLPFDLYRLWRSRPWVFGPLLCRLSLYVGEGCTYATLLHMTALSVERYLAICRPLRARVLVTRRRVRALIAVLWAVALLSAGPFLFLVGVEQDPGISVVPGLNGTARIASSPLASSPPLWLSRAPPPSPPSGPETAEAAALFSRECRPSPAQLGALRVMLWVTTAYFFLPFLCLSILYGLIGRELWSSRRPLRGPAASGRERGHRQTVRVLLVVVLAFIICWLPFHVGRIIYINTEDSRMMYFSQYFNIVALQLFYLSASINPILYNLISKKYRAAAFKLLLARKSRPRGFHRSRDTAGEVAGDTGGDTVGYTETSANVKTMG

[4] = target: Angiopoietin-1 receptor (Homo sapiens) (UniProt Q02763); conditions: Compound concentration 1000.0 nM
Angiopoietin-1 receptor (Homo sapiens), sequence (Q02763 whole entry): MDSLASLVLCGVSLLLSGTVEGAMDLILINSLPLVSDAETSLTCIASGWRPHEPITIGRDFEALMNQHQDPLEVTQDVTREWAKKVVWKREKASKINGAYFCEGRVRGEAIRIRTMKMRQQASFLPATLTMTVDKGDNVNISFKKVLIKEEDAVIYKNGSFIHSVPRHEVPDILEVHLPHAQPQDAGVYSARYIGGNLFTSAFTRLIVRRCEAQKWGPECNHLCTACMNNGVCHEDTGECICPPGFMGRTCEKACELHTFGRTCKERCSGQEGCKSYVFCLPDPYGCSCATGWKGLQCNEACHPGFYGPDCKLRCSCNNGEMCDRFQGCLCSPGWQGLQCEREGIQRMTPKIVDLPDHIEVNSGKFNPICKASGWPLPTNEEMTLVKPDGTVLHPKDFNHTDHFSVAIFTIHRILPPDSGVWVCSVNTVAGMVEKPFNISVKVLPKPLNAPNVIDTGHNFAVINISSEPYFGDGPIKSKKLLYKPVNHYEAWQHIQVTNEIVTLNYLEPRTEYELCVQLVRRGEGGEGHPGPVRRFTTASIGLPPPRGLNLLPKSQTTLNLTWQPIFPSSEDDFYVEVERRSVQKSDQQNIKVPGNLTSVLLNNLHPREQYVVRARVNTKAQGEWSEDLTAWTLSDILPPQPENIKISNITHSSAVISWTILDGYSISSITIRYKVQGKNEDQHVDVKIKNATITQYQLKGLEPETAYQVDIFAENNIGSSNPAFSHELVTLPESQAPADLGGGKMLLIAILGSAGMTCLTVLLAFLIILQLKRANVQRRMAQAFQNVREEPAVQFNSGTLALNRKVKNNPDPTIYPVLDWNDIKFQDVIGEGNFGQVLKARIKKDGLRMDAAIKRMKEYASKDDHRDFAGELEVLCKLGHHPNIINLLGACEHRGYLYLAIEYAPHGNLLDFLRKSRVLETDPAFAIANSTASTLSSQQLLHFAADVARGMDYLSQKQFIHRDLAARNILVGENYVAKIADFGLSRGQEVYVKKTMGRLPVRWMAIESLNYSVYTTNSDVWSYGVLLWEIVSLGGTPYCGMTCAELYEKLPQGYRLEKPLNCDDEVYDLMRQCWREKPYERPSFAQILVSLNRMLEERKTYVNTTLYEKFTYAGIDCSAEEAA

[5] = target: TRAF2 and NCK-interacting protein kinase (Homo sapiens) (UniProt Q9UKE5); conditions: Compound concentration 1000.0 nM
[6] = target: Myosin light chain kinase family member 4 (Homo sapiens) (UniProt Q86YV6); conditions: Compound concentration 1000.0 nM
[7] = target: Ephrin type-B receptor 4 (Homo sapiens) (UniProt P54760); conditions: Compound concentration 1000.0 nM
[8] = target: Serine/threonine-protein kinase 3 (Homo sapiens) (UniProt Q13188); conditions: Compound concentration 1000.0 nM
[9] = target: cAMP-dependent protein kinase catalytic subunit PRKX (Homo sapiens) (UniProt P51817); conditions: Compound concentration 1000.0 nM
[10] = target: T1, Alpha-2A adrenergic receptor (Homo sapiens) (UniProt P08913); conditions: Compound concentration 10.0 uM
T1 sequence (whole entry): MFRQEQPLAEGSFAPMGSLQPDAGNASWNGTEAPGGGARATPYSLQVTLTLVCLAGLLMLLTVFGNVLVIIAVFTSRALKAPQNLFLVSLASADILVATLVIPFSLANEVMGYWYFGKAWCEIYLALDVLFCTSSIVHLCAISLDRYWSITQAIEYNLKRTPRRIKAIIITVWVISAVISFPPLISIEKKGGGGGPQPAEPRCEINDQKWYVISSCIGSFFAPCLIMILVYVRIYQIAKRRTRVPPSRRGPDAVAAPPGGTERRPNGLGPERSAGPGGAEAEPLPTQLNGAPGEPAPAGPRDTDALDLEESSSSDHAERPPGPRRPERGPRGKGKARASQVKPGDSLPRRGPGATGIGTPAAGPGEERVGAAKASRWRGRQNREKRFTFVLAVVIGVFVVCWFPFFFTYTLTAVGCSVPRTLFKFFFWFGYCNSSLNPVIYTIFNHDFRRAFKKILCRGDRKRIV

[11] = target: Mitogen-activated protein kinase kinase kinase 6 (Homo sapiens) (UniProt O95382); conditions: Compound concentration 1000.0 nM
[12] = target: Testis-specific serine/threonine-protein kinase 3 (Homo sapiens) (UniProt Q96PN8); conditions: Compound concentration 1000.0 nM
[13] = target: Serine/threonine-protein kinase PLK4 (Homo sapiens) (UniProt O00444); conditions: Compound concentration 1000.0 nM
[14] = target: Serine/threonine-protein kinase WNK1 (Homo sapiens) (UniProt Q9H4A3); conditions: Compound concentration 1000.0 nM
[15] = target: Tyrosine-protein kinase Srms (Homo sapiens) (UniProt Q9H3Y6); conditions: Compound concentration 1000.0 nM
[16] = target: Dual specificity mitogen-activated protein kinase kinase 1 (Homo sapiens) (UniProt Q02750); conditions: Compound concentration 1000.0 nM
[17] = target: Alpha-1B adrenergic receptor (Homo sapiens) (UniProt P35368); conditions: Compound concentration 10.0 uM
[18] = system: Receptor-type tyrosine-protein kinase FLT3 (Homo sapiens), P36888 [K663Q]; conditions: Compound concentration 1000.0 nM
[19] = target: Vascular endothelial growth factor receptor 2 (Homo sapiens) (UniProt P35968); conditions: Compound concentration 1000.0 nM
[20] = target: Serine/threonine-protein kinase PAK 3 (Homo sapiens) (UniProt O75914); conditions: Compound concentration 1000.0 nM
Serine/threonine-protein kinase PAK 3 (Homo sapiens), sequence (O75914 whole entry, looked up, canonical isoform): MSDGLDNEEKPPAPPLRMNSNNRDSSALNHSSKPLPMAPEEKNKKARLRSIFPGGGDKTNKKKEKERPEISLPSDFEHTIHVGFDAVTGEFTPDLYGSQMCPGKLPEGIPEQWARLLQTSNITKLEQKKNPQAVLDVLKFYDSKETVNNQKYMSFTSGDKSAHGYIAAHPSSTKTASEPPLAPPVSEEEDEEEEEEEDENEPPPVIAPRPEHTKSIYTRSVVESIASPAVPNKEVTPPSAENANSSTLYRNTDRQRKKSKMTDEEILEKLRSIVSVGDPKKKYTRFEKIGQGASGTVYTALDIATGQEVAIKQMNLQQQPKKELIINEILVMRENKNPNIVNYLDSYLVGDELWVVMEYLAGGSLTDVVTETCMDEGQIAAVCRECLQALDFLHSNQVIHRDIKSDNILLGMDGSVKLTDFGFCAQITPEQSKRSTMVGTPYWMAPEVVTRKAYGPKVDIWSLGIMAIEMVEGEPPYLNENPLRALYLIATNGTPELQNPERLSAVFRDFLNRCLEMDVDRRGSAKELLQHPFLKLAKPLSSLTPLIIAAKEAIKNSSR

[21] = target: Casein kinase I isoform gamma-3 (Homo sapiens) (UniProt Q9Y6M4); conditions: Compound concentration 1000.0 nM
[22] = target: Death-associated protein kinase 1 (Homo sapiens) (UniProt P53355); conditions: Compound concentration 1000.0 nM
[23] = target: Ribosomal protein S6 kinase alpha-5 (Homo sapiens) (UniProt O75582); conditions: Compound concentration 1000.0 nM
[24] = target: Dual specificity mitogen-activated protein kinase kinase 2 (Homo sapiens) (UniProt P36507); conditions: Compound concentration 1000.0 nM
[25] = target: Activin receptor type-1 (Homo sapiens) (UniProt Q04771); conditions: Compound concentration 1000.0 nM
[26] = target: Citron Rho-interacting kinase (Homo sapiens) (UniProt O14578); conditions: Compound concentration 1000.0 nM
[27] = target: Serine/threonine-protein kinase Sgk1 (Homo sapiens) (UniProt O00141); conditions: Compound concentration 1000.0 nM
[28] = target: Serine/threonine-protein kinase 32A (Homo sapiens) (UniProt Q8WU08); conditions: Compound concentration 1000.0 nM
[29] = target: NUAK family SNF1-like kinase 2 (Homo sapiens) (UniProt Q9H093); conditions: Compound concentration 1000.0 nM
[30] = target: Tyrosine-protein kinase HCK (Homo sapiens) (UniProt P08631); conditions: Compound concentration 1000.0 nM
[31] = target: Serine/threonine-protein kinase PLK1 (Homo sapiens) (UniProt P53350); conditions: Compound concentration 1000.0 nM
[32] = target: Death-associated protein kinase 3 (Homo sapiens) (UniProt O43293); conditions: Compound concentration 1000.0 nM
Death-associated protein kinase 3 (Homo sapiens), sequence (O43293 whole entry, looked up): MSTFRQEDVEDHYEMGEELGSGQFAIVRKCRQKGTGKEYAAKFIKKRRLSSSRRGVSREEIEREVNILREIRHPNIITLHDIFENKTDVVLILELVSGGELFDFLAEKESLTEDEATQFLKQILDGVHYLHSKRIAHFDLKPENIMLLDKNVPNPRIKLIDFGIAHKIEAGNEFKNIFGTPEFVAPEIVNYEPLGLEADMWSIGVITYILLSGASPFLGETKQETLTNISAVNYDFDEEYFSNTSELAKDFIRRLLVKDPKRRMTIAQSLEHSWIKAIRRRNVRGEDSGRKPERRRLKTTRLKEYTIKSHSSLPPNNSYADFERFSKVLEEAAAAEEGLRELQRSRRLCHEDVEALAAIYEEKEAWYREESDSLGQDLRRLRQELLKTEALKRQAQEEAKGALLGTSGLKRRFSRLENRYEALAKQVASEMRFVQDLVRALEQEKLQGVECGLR

[33] = target: Serine/threonine-protein kinase PAK 1 (Homo sapiens) (UniProt Q13153); conditions: Compound concentration 1000.0 nM
[34] = target: Serine/threonine-protein kinase MARK2 (Homo sapiens) (UniProt Q7KZI7); conditions: Compound concentration 1000.0 nM
[35] = target: Cyclin-G-associated kinase (Homo sapiens) (UniProt O14976); conditions: Compound concentration 1000.0 nM
[36] = system: Receptor-type tyrosine-protein kinase FLT3 (Homo sapiens), P36888 [D835Y]; conditions: Compound concentration 1000.0 nM
[37] = target: Mitogen-activated protein kinase kinase kinase 5 (Homo sapiens) (UniProt Q99683); conditions: Compound concentration 1000.0 nM
[38] = target: Bone morphogenetic protein receptor type-1A (Homo sapiens) (UniProt P36894); conditions: Compound concentration 1000.0 nM
Bone morphogenetic protein receptor type-1A (Homo sapiens), sequence (P36894 whole entry): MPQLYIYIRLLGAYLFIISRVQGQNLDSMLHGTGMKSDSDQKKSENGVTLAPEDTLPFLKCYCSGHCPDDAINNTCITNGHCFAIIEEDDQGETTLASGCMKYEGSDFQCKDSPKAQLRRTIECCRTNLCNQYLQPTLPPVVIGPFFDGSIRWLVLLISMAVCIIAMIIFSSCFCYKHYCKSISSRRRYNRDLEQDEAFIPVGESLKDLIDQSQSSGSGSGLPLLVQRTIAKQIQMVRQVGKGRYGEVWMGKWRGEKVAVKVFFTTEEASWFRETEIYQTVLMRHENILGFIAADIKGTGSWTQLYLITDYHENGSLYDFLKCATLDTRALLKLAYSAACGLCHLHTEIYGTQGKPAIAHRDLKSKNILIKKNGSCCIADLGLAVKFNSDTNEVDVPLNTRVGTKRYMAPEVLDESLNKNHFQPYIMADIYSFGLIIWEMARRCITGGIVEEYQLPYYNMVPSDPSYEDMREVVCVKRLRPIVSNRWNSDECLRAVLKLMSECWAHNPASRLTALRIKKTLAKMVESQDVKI

[39] = target: Insulin-like growth factor 1 receptor (Homo sapiens) (UniProt P08069); conditions: Compound concentration 1000.0 nM
Insulin-like growth factor 1 receptor (Homo sapiens), sequence (P08069 31-736 limits assumed): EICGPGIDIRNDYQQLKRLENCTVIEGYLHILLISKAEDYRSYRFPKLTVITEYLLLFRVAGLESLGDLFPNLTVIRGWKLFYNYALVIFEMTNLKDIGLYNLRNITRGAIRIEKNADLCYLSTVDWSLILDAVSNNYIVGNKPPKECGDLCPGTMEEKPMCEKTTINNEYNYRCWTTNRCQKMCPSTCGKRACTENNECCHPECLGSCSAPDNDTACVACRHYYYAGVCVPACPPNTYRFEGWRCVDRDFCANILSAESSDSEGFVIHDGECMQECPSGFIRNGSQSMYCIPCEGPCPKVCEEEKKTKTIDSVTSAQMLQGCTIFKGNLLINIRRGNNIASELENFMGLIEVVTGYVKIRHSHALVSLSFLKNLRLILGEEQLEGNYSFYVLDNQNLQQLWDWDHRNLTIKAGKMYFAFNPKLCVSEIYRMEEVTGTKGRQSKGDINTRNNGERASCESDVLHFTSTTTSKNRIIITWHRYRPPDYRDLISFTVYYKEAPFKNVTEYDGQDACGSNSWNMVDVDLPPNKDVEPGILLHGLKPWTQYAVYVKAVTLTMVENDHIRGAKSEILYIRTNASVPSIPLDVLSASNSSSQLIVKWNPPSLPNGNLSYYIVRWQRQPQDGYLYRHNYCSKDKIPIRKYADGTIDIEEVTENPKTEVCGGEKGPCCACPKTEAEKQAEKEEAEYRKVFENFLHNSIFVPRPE
Insulin-like growth factor 1 receptor (Homo sapiens), sequence (P08069 741-1367 limits assumed): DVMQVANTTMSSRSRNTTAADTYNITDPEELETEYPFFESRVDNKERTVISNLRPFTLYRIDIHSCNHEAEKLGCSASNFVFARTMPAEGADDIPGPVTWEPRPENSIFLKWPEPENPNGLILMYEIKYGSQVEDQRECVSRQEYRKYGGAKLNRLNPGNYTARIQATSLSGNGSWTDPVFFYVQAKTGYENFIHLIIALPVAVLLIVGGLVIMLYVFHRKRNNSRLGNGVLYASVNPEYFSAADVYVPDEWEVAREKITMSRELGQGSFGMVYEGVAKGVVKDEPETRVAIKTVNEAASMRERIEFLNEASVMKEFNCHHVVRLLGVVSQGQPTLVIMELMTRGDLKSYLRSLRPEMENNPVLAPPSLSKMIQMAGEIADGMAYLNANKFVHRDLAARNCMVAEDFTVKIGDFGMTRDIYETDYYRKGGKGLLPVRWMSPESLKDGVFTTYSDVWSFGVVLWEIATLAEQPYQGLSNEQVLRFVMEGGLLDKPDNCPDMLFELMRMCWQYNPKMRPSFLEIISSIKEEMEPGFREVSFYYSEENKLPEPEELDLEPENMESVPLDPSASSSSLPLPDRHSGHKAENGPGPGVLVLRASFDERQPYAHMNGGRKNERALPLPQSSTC

Cannabinoid receptor 1 (Homo sapiens), sequence (P21554 whole entry): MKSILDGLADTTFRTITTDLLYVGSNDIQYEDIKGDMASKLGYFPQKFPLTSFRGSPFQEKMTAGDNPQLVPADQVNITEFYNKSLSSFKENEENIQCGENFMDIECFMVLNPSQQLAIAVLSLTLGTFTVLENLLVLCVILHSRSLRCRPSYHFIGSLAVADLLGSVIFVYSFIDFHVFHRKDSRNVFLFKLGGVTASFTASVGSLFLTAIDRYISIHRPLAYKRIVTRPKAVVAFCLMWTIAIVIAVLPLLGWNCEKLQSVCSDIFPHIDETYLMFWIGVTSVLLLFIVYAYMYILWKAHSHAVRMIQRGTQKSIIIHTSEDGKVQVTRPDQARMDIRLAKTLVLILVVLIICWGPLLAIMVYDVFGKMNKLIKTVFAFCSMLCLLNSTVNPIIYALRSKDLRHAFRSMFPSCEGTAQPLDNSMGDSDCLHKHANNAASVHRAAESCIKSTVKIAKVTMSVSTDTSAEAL

SMILES: O=C(N1CCS(=O)(=O)CC1)N1C[C@H](c2ccc(OC(F)(F)F)cc2)C[C@H](c2nc(C3CC3)no2)C1 [BAY-386]
- % Inhibition of Control Agonist Response (Mean n=2) [1]: 80.7%
- % of Control Agonist Response (Mean n=2) [1]: -267%
- residual activity [2]: 100%
- % Inhibition of Control Agonist Response (Mean n=2) [3]: 29.2%
- % of Control Agonist Response (Mean n=2) [3]: 16.7%
- residual activity [4]: 100%
- residual activity [5]: 75%
- residual activity [6]: 100%
- residual activity [7]: 100%
- residual activity [8]: 100%
- residual activity [9]: 100%
- inhibition [10]: -0.34%
- residual activity [11]: 91%
- residual activity [12]: 100%
- residual activity [13]: 100%
- residual activity [14]: 100%
- residual activity [15]: 100%
- residual activity [16]: 91%
- inhibition [17]: 14.2%
- residual activity [18]: 100%
- residual activity [19]: 88%
- residual activity [20]: 100%
- residual activity [21]: 100%
- residual activity [22]: 92%
- residual activity [23]: 100%
- residual activity [24]: 100%
- residual activity [25]: 100%
- residual activity [26]: 100%
- residual activity [27]: 91%
- residual activity [28]: 89%
- residual activity [29]: 100%
- residual activity [30]: 100%
- residual activity [31]: 91%
- residual activity [32]: 100%
- residual activity [33]: 100%
- residual activity [34]: 100%
- residual activity [35]: 100%
- residual activity [36]: 100%
- residual activity [37]: 100%
- residual activity [38]: 89%
- residual activity [39]: 100%

SMILES: Cc1noc([C@H]2C[C@@H](c3ccc(C(F)(F)F)cc3)CN(C(=O)N3CCS(=O)(=O)C3)C2)n1 [BAY-448]
- % Inhibition of Control Agonist Response (Mean n=2) [1]: -0.6%
- % of Control Agonist Response (Mean n=2) [1]: -17.6%
- residual activity [2]: 96%
- % Inhibition of Control Agonist Response (Mean n=2) [3]: 0.9%
- % of Control Agonist Response (Mean n=2) [3]: 6.9%
- residual activity [4]: 100%
- residual activity [5]: 99%
- residual activity [6]: 100%
- residual activity [7]: 100%
- residual activity [8]: 100%
- residual activity [9]: 100%
- inhibition [10]: 6.96%
- residual activity [11]: 92%
- residual activity [12]: 100%
- residual activity [13]: 88%
- residual activity [14]: 86%
- residual activity [15]: 89%
- residual activity [16]: 100%
- inhibition [17]: -1.18%
- residual activity [18]: 100%
- residual activity [19]: 100%
- residual activity [20]: 100%
- residual activity [21]: 100%
- residual activity [22]: 100%
- residual activity [23]: 85%
- residual activity [24]: 90%
- residual activity [25]: 100%
- residual activity [26]: 98%
- residual activity [27]: 100%
- residual activity [28]: 100%
- residual activity [29]: 100%
- residual activity [30]: 100%
- residual activity [31]: 81%
- residual activity [32]: 100%
- residual activity [33]: 79%
- residual activity [34]: 100%
- residual activity [35]: 97%
- residual activity [36]: 100%
- residual activity [37]: 100%
- residual activity [38]: 100%
- residual activity [39]: 100%

From ChEMBL document CHEMBL4507269, “Data for DCP probe BAY-386” (2021)
